Here are results for 8 molecules from DBAASP.

Structures are written as SMILES. Values after ≈ are worked out from the molar mass of the structure shown.

Holding throughout (assay): ≥ marks a high value that may be exact or a test limit, other limits are often not marked, values filed in µg/mL are converted to µM
Experiment [1] deals with Aeromonas salmonicida NCTC 7812.
In experiment [2] the test system is Enterococcus faecalis ATCC 29212.
Experiment [3] has as its system Escherichia coli ATCC 25922.
For experiment [4], the system named is Lactococcus garvieae 00-1422.
For experiment [5], the system named is Shigella flexneri ATCC 12022.
The subject of experiment [6] is Staphylococcus aureus ATCC 29213.
Experiment [7] has as its system Streptococcus iniae 00-1425.
Experiment [8] concerns Vibrio anguillarum ATCC 19264.
Experiment [9] relates to Listeria fleischmannii DSM 24998.
Experiment [10] deals with Listeria monocytogenes DSM 20600.
In experiment [11] the test system is Micrococcus luteus DSM 20030.
For experiment [12], the system named is Staphylococcus aureus DSM 2569.
Experiment [13] concerns Bacillus subtilis 168.
For experiment [14], the system named is Candida albicans F7-39/IDE99.
The subject of experiment [15] is Escherichia coli B.
Experiment [16] has as its system Micrococcus luteus CCM 144.
Experiment [17] relates to Pseudomonas aeruginosa ATCC 27853.
Experiment [18] has as its system Pseudomonas aeruginosa.
Experiment [19] concerns Staphylococcus aureus 1.
In experiment [20] the test system is Staphylococcus aureus ATCC 43300.
In experiment [21] the test system is Staphylococcus aureus.
The test system of experiment [22] is Staphylococcus epidermidis.
Experiment [23] has as its system Streptococcus mutans UA159.
The subject of experiment [24] is Streptococcus sanguinis ATCC 10556.
Experiment [25] concerns Streptococcus sobrinus ATCC 6715.
In experiment [26] the test system is Pseudomonas aeruginosa 0108.
Experiment [27] deals with Pseudomonas aeruginosa CGMCC 1.860.
In experiment [28] the test system is Candida albicans ATCC 10231.
Experiment [29] concerns Candida albicans ATCC 90028.
The subject of experiment [30] is Staphylococcus aureus ATCC 29737.
For experiment [31], the system named is Staphylococcus aureus USA 100.
Experiment [32] deals with Staphylococcus aureus USA 300.
The test system of experiment [33] is Staphylococcus epidermidis ATCC 12228.
The test system of experiment [34] is Candida albicans ATCC 18804.
Experiment [35] has as its system Staphylococcus aureus ATCC 25923.
The subject of experiment [36] is Escherichia coli AB94012.
Experiment [37] has as its system Pseudomonas aeruginosa AB93066.
In experiment [38] the test system is Pseudomonas aeruginosa ATCC 9027.
Experiment [39] concerns Staphylococcus aureus AB94004.
In experiment [40] the test system is Staphylococcus aureus ATCC 6538.
For experiment [41], the system named is Staphylococcus aureus P1374.
In experiment [42] the test system is Staphylococcus aureus P1381.

On to `CC[C@H](C)[C@H](NC(=O)CNC(=O)[C@H](CCCN=C(N)N)NC(=O)[C@H](Cc1ccccc1)NC(=O)[C@@H](NC(=O)[C@H](Cc1cnc[nH]1)NC(=O)[C@H](Cc1cnc[nH]1)NC(=O)[C@H](Cc1ccccc1)NC(=O)[C@@H](N)Cc1ccccc1)[C@@H](C)CC)C(=O)N[C@H](C(=O)N[C@@H](Cc1cnc[nH]1)C(=O)N[C@H](C(=O)NCC(=O)N[C@@H](CCCCN)C(=O)N[C@H](C(=O)N[C@H](C(=O)N[C@@H](Cc1cnc[nH]1)C(=O)N[C@@H](CCCCN)C(=O)N[C@@H](CC(C)C)C(=O)N[C@H](C(=O)N[C@H](C(=O)NCC(=O)O)[C@@H](C)O)C(C)C)[C@@H](C)CC)[C@@H](C)O)C(C)C)C(C)C` [FFHHIFRGIVHVGKTIHKLVTG], for which the MIC (usually the least concentration at which growth counts as inhibited) in experiment [1] was not below 78.6 µM; in experiment [2], 1.23 µM (≈ 3.13 µg/mL); in experiment [3] it was 4.91 µM (≈ 12.5 µg/mL); in [4] it was 0.61 µM (≈ 1.55 µg/mL); in experiment [5] it was 2.46 µM (≈ 6.26 µg/mL); in experiment [6], 2.46 µM (≈ 6.26 µg/mL). Further, the minimum inhibitory concentration (MIC) in [7] was 2.46 µM (≈ 6.26 µg/mL); in experiment [8] it was 4.91 µM (≈ 12.5 µg/mL).
Turning to `CC[C@H](C)[C@H](NC(=O)CNC(=O)[C@H](CC(N)=O)NC(=O)[C@H](Cc1c[nH]c2ccccc12)NC(=O)[C@@H](NC(=O)[C@@H](NC(=O)[C@H](CO)NC(=O)[C@H](CC(C)C)NC(=O)[C@@H](N)Cc1ccccc1)[C@@H](C)O)[C@@H](C)CC)C(=O)N[C@@H](CCCCN)C(=O)N[C@@H](CO)C(=O)N[C@@H](CC(C)C)C(=O)N[C@@H](Cc1ccccc1)C(N)=O` [FLSTIWNGIKSLF], the MIC in experiment [9] was 15 µM (≈ 22.9 µg/mL); in experiment [10], 15 µM (≈ 22.9 µg/mL); in experiment [11], 4 µM (≈ 6.1 µg/mL); in experiment [12], 8 µM (≈ 12.2 µg/mL).
In the case of `CC[C@H](C)[C@H](NC(=O)CN)C(=O)N[C@@H](CC(C)C)C(=O)N[C@@H](CO)C(=O)N[C@@H](CO)C(=O)N[C@@H](CC(C)C)C(=O)N[C@@H](CC(C)C)C(=O)N[C@@H](CCCCN)C(=O)N[C@@H](CCCCN)C(=O)N[C@@H](CC(C)C)C(=O)N[C@@H](CCCCN)C(=O)N[C@@H](CCCCN)C(=O)N[C@H](C(=O)N[C@H](C(=O)N[C@@H](C)C(=O)N[C@@H](CCCCN)C(N)=O)[C@@H](C)CC)[C@@H](C)CC` [GILSSLLKKLKKIIAK], the MIC was found to be 7 µM (≈ 12.3 µg/mL) in [13]; 10 µM (≈ 17.5 µg/mL) in experiment [14]; 8 µM (≈ 14 µg/mL) in [15]; 3 µM (≈ 5.26 µg/mL) in experiment [16]; 5 µM (≈ 8.76 µg/mL) in experiment [17]; 7.5 µM (≈ 13.1 µg/mL) in experiment [18]. Further, the MIC in experiment [19] was determined as 3.8 µM (≈ 6.66 µg/mL); in experiment [20], 16 µM (≈ 28 µg/mL); in experiment [21] it was 5 µM (≈ 8.76 µg/mL); in [22], 1.8 µM (≈ 3.15 µg/mL).
`CC(C)[C@H](NC(=O)[C@H](CCCCN)NC(=O)[C@H](CCCCN)NC(=O)[C@H](C)NC(=O)[C@H](CCCCN)NC(=O)[C@H](CCCCN)NC(=O)[C@H](Cc1ccccc1)NC(=O)[C@H](Cc1ccccc1)NC(=O)[C@H](CCCCN)NC(=O)[C@H](CCCCN)NC(=O)[C@H](Cc1c[nH]c2ccccc12)NC(=O)CN)C(=O)NCC(=O)N[C@@H](CCCCN)C(=O)O` [GWKKFFKKAKKVGK]: the MIC in [23], in experiment [24] and in experiment [25] was not below 305 µM in each case.
On to `CC[C@H](C)[C@H](N)C(=O)N[C@@H](CCCCN)C(=O)N[C@@H](CCCCN)C(=O)N[C@@H](Cc1c[nH]c2ccccc12)C(=O)N[C@@H](CC(C)C)C(=O)N[C@@H](CO)C(=O)N[C@@H](CCCCN)C(=O)N[C@H](C(=O)N[C@@H](CCCCN)C(=O)N[C@@H](CCCCN)C(=O)N[C@@H](CC(C)C)C(=O)N[C@@H](CC(C)C)C(=O)N[C@@H](CCCCN)C(N)=O)[C@@H](C)CC` [IKKWLSKIKKLLK], for which the minimum inhibitory concentration (MIC) in [26] came out at 6.25 µM (≈ 10.2 µg/mL); in experiment [27] it was 3.13 µM (≈ 5.09 µg/mL).
In the case of `CC[C@H](C)[C@H](N)C(=O)N[C@@H](CCCN=C(N)N)C(=O)N[C@H](C(=O)N[C@@H](CCCCN)C(=O)N[C@H](C(=O)N[C@@H](CCCN=C(N)N)C(=O)N[C@H](C(=O)N[C@@H](CCCCN)C(N)=O)[C@@H](C)CC)[C@@H](C)CC)[C@@H](C)CC` [IRIKIRIK], the MIC in [28] was 3.75 µM (≈ 3.9 µg/mL); in experiment [29] it was 1.56 µM (≈ 1.62 µg/mL); in [3] it was 15 µM (≈ 15.6 µg/mL); in experiment [30], not below 60.1 µM; in experiment [31] it was 12.5 µM (≈ 13 µg/mL); in experiment [32], 12.5 µM (≈ 13 µg/mL). This molecule also registered an MIC in experiment [33] of 3.75 µM (≈ 3.9 µg/mL).
Regarding `CC(C)C[C@H](NC(=O)[C@H](Cc1cnc[nH]1)NC(=O)[C@H](Cc1ccc(O)cc1)NC(=O)[C@H](CCCN=C(N)N)NC(=O)[C@H](Cc1ccc(O)cc1)NC(=O)[C@H](CCCCN)NC(=O)[C@@H](N)CCCCN)C(=O)N[C@@H](CCCCN)C(=O)N1CCC[C@H]1C(=O)N[C@@H](Cc1ccccc1)C(=O)N[C@@H](CO)C(=O)N[C@@H](CCCCN)C(=O)N[C@@H](CCCCN)C(N)=O` [KKYRYHLKPFSKK], the MIC in [34] was not below 128 µM; in experiment [3] it was 128 µM (≈ 220 µg/mL); in experiment [35], more than 128 µM.
On to `CC[C@H](C)[C@H](NC(=O)[C@H](CO)NC(=O)[C@H](CCCCN)NC(=O)[C@@H](NC(=O)CNC(=O)[C@H](CCCCN)NC(=O)[C@H](Cc1c[nH]c2ccccc12)NC(=O)[C@H](CC(C)C)NC(=O)[C@H](CCCCN)NC(=O)CNC(=O)[C@H](CC(C)C)NC(=O)[C@@H](NC(=O)[C@@H](N)CC(C)C)[C@@H](C)CC)C(C)C)C(=O)N[C@@H](Cc1ccccc1)C(N)=O` [LILGKLWKGVKSIF], for which the MIC in experiment [36] was 31.2 µM (≈ 50 µg/mL); in [3] it was 62.4 µM (≈ 99.9 µg/mL); in experiment [37] it was not below 62.4 µM; in experiment [38], 15.6 µM (≈ 25 µg/mL); in [39], 7.8 µM (≈ 12.5 µg/mL); in experiment [35] it was 7.8 µM (≈ 12.5 µg/mL). Also, the MIC was 7.8 µM (≈ 12.5 µg/mL) in [40], 3.9 µM (≈ 6.25 µg/mL) in experiment [41] and 15.6 µM (≈ 25 µg/mL) in experiment [42].
